Reference: patent US20250082640A1, “Therapeutics for Hyponatremia and Polycystic Kidney Disease” (University of Cincinnati, priority 2021, published 2025)

Experiments:
[1] = system: water channel aquaporin 2 (AQP2); conditions: rat kidney collecting duct system, high dose; cited from earlier work
Male Sprague Dawley rats = assay: Metabolic cage study of rats fed diet containing R2-ADN or adenine (Example 1, Table 1); assay type: in vivo, rat; conditions: for Urine osmolality, Average Baseline / Urine osmolality, Baseline Day 1 / Urine osmolality, Baseline Day 2: baseline before treatment; for Urine osmolality, Day 1: treatment day 1; for Urine osmolality, Day 2: treatment day 2; for Urine osmolality, Day 3: treatment day 3; for Urine osmolality, Day 4: treatment day 4; for Urine osmolality, Day 5: treatment day 5; for Urine osmolality, Day 6: treatment day 6
Description: The effects of R2-ADN on these physiologic parameters are dose- and time-dependent.
In addition, the effects of adenine (ADN) were compared to those of R2-ADN on these physiologic parameters.
Male Sprague Dawley rats were placed in metabolic cages and fed powdered rodent chow with access to distilled water ad libitum. After adjustment, baseline data were collected for 2 days and then rats were randomly divided into different groups. […]

salt transporter NKCC2 = conditions: rat kidney medullary thick ascending limb, high dose; cited from earlier work
Rats = assay: Metabolic cage study of rats fed diet supplemented with R3-AND or R4-AND (Example 2); assay type: in vivo, rat; conditions: for food intake / water intake / urine volume / urine osmolality: day 4, in diet (R4-ADN at 0.15% weight/weight); for food intake: vs control (FIG. 7A); for water intake: vs control (FIG. 7B); for urine volume: vs control (FIG. 7C); for urine osmolality: vs control (FIG. 7D)
[2] = system: primary human hepatocytes; conditions: in vitro; cited from earlier work
45 strains of mice = conditions: single oral dose; cited from earlier work
[3] = rats of the 0.15% in diet group
[4] = rats of the 0.20% in diet group
[5] = rats of the 0.25% in diet group
[6] = rats, 0.15% in diet, adenine vs R2-ADN

Q: With `Nc1ncnc2nc[nH]c12` [ADN, adenine] as the compound, how does the “AQP2 gene expression and protein abundance” value [1] read?
A: decreasing the gene expression and protein abundance

Q: What about the “Urine osmolality, Average Baseline” value (Male Sprague Dawley rats; [3]) of the same compound?
A: 1890 mosm/kg H2O

Q: And the “Urine osmolality, Baseline Day 1” value (Male Sprague Dawley rats; [3])?
A: 1848 mosm/kg H2O

Q: What about the “Urine osmolality, Baseline Day 2” value (Male Sprague Dawley rats; [3]) of the same compound?
A: 1933 mosm/kg H2O

Q: And the “Urine osmolality, Average Baseline” value (Male Sprague Dawley rats; [4])?
A: 1619 mosm/kg H2O

Q: What about the “Urine osmolality, Baseline Day 1” value (Male Sprague Dawley rats; [4]) of the same compound?
A: 1638 mosm/kg H2O

Q: What about the “Urine osmolality, Baseline Day 2” value (Male Sprague Dawley rats; [4]) of the same compound?
A: 1599 mosm/kg H2O

Q: What about the “Urine osmolality, Average Baseline” value (Male Sprague Dawley rats; [5]) of the same compound?
A: 1529 mosm/kg H2O

Q: What about the “Urine osmolality, Baseline Day 1” value (Male Sprague Dawley rats; [5]) of the same compound?
A: 1648 mosm/kg H2O

Q: What about the “Urine osmolality, Baseline Day 2” value (Male Sprague Dawley rats; [5]) of the same compound?
A: 1410 mosm/kg H2O

Q: And the urine osmolality (Male Sprague Dawley rats; [6])?
A: no effect

Q: And the “urine volume / daily water balance” value (Male Sprague Dawley rats; [6])?
A: no effect

Q: And the “Urine osmolality, Day 1” value (Male Sprague Dawley rats; rats, 0.15% in diet)?
A: 1750 mosm/kg H2O

Q: What about the “Urine osmolality, Day 2” value (Male Sprague Dawley rats; rats, 0.15% in diet) of the same compound?
A: 1752 mosm/kg H2O

Q: And the “Urine osmolality, Day 3” value (Male Sprague Dawley rats; rats, 0.15% in diet)?
A: 1770 mosm/kg H2O

Q: And the “Urine osmolality, Day 4” value (Male Sprague Dawley rats; rats, 0.15% in diet)?
A: 1671 mosm/kg H2O

Q: And the “Urine osmolality, Day 5” value (Male Sprague Dawley rats; rats, 0.15% in diet)?
A: 1700 mosm/kg H2O

Q: What about the “Urine osmolality, Day 6” value (Male Sprague Dawley rats; rats, 0.15% in diet) of the same compound?
A: 1738 mosm/kg H2O

Q: And the “Urine osmolality, Day 1” value (Male Sprague Dawley rats; rats, 0.20% in diet)?
A: 1475 mosm/kg H2O

Q: What about the “Urine osmolality, Day 2” value (Male Sprague Dawley rats; rats, 0.20% in diet) of the same compound?
A: 1371 mosm/kg H2O

Q: What about the “Urine osmolality, Day 3” value (Male Sprague Dawley rats; rats, 0.20% in diet) of the same compound?
A: 1354 mosm/kg H2O

Q: What about the “Urine osmolality, Day 4” value (Male Sprague Dawley rats; rats, 0.20% in diet) of the same compound?
A: 1296 mosm/kg H2O

Q: And the “Urine osmolality, Day 5” value (Male Sprague Dawley rats; rats, 0.20% in diet)?
A: 1279 mosm/kg H2O

Q: And the “Urine osmolality, Day 6” value (Male Sprague Dawley rats; rats, 0.20% in diet)?
A: 1386 mosm/kg H2O

Q: And the “Urine osmolality, Day 1” value (Male Sprague Dawley rats; rats, 0.25% in diet)?
A: 1198 mosm/kg H2O

Q: What about the “Urine osmolality, Day 2” value (Male Sprague Dawley rats; rats, 0.25% in diet) of the same compound?
A: 848 mosm/kg H2O

Q: And the “Urine osmolality, Day 3” value (Male Sprague Dawley rats; rats, 0.25% in diet)?
A: 976 mosm/kg H2O

Q: What about the “Urine osmolality, Day 4” value (Male Sprague Dawley rats; rats, 0.25% in diet) of the same compound?
A: 1019 mosm/kg H2O

Q: What about the “Urine osmolality, Day 5” value (Male Sprague Dawley rats; rats, 0.25% in diet) of the same compound?
A: 938 mosm/kg H2O

Q: What about the “Urine osmolality, Day 6” value (Male Sprague Dawley rats; rats, 0.25% in diet) of the same compound?
A: 956 mosm/kg H2O

Q: What about the “NKCC2 gene expression and protein abundance” value (salt transporter NKCC2) of the same compound?
A: decreasing the gene expression and protein abundance

Q: Which “potency relative to adenine in effects on water handling / water loss by the kidney” value (Male Sprague Dawley rats; rats) does the source give for `Nc1nc(Cl)nc2nc[nH]c12` [R2-ADN, 2-chloro-6-aminopurine] here?
A: more potent than adenine

Q: And the “Urine osmolality, Average Baseline” value (Male Sprague Dawley rats; [3])?
A: 1558 mosm/kg H2O

Q: What about the “Urine osmolality, Baseline Day 1” value (Male Sprague Dawley rats; [3]) of the same compound?
A: 1614 mosm/kg H2O

Q: And the “Urine osmolality, Baseline Day 2” value (Male Sprague Dawley rats; [3])?
A: 1502 mosm/kg H2O

Q: What about the water intake (Male Sprague Dawley rats; rats, 0.075%, 0.15% or 0.25% in diet, 7 days, vs baseline and control, dose- and time-dependent (FIGS. 1A-1D)) of the same compound?
A: significant increase

Q: And the urine volume (Male Sprague Dawley rats; rats, 0.075%, 0.15% or 0.25% in diet, 7 days, vs baseline and control, dose- and time-dependent (FIGS. 2A-2D))?
A: significant increase

Q: And the urine osmolality (Male Sprague Dawley rats; rats, 0.075%, 0.15% or 0.25% in diet, 7 days, vs baseline or control, dose- and time-dependent (FIGS. 3A-3D))?
A: sharp reduction

Q: What about the urine osmolality (Male Sprague Dawley rats; [6]) of the same compound?
A: significantly impaired

Q: And the “urine volume / daily water balance” value (Male Sprague Dawley rats; [6])?
A: significantly impaired

Q: What about the “Urine osmolality, Day 1” value (Male Sprague Dawley rats; rats, 0.15% in diet) of the same compound?
A: 1085 mosm/kg H2O

Q: What about the “Urine osmolality, Day 2” value (Male Sprague Dawley rats; rats, 0.15% in diet) of the same compound?
A: 625 mosm/kg H2O

Q: What about the “Urine osmolality, Day 3” value (Male Sprague Dawley rats; rats, 0.15% in diet) of the same compound?
A: 720 mosm/kg H2O

Q: What about the “Urine osmolality, Day 4” value (Male Sprague Dawley rats; rats, 0.15% in diet) of the same compound?
A: 649 mosm/kg H2O

Q: What about the “Urine osmolality, Day 5” value (Male Sprague Dawley rats; rats, 0.15% in diet) of the same compound?
A: 657 mosm/kg H2O

Q: What about the “Urine osmolality, Day 6” value (Male Sprague Dawley rats; rats, 0.15% in diet) of the same compound?
A: 508 mosm/kg H2O

Q: What about the “reduction in urine osmolality” value (Male Sprague Dawley rats; rats, 0.15% in diet, within the second day of treatment) of the same compound?
A: ~60%

Q: And the food intake (Male Sprague Dawley rats; rats, high dose (0.25%), day 7 of feeding)?
A: significant reduction

Q: What about the food intake (Male Sprague Dawley rats; rats, lower doses in diet (FIGS. 4A-4D)) of the same compound?
A: did not significantly alter

Q: What about the “changes in body weight” value (Male Sprague Dawley rats; rats, vs control group (FIGS. 5A-5D)) of the same compound?
A: impacted the changes in body weight

Q: Which food intake (Rats) does the source give for `O=C(Nc1ncnc2nc[nH]c12)c1ccccc1` [R3-AND, N6-benzoyladenine] here?
A: none of the measured parameters

Q: What about the water intake (Rats) of the same compound?
A: none of the measured parameters

Q: And the urine volume (Rats)?
A: none of the measured parameters

Q: And the urine osmolality (Rats)?
A: none of the measured parameters

Q: What does the source list for `CN(C)c1ncnc2nc[nH]c12` [R4-ADN, 6-(Dimethylamino) purine]?
A: potency relative to adenine in increasing water loss by the kidney (Rats): more potent than adenine; food intake (Rats): significant reduction; water intake (Rats): significant increase; urine volume (Rats): significant increase; urine osmolality (Rats): sharp reduction

Q: With `Cc1ccccc1C(=O)Nc1ccc(C(=O)N2CCCC(O)c3cc(Cl)ccc32)c(C)c1` (stereo not shown) [tolvaptan] as the compound, how does the hepatocyte toxicity [2] read?
A: causes mitochondrial-induced apoptosis and oxidative stress

Q: What about the “signs of liver injury mechanisms” value (45 strains of mice) of the same compound?
A: signs of mitochondrial dysfunction, increased oxidative stress, and activation of immune response
